Values quoted from earlier work in paper PMC4177305 (ChemMedChem, 2014).

Columns and labels:
[1] = in humans
[2] = target: human serum albumin (Homo sapiens, UniProt P02768); conditions: reported affinity of MS-325 to human serum albumin
[3] = test system: human serum albumin (HSA); conditions: displaces site II ligands rather than site I ligands

Chain of human serum albumin (P02768 25-609): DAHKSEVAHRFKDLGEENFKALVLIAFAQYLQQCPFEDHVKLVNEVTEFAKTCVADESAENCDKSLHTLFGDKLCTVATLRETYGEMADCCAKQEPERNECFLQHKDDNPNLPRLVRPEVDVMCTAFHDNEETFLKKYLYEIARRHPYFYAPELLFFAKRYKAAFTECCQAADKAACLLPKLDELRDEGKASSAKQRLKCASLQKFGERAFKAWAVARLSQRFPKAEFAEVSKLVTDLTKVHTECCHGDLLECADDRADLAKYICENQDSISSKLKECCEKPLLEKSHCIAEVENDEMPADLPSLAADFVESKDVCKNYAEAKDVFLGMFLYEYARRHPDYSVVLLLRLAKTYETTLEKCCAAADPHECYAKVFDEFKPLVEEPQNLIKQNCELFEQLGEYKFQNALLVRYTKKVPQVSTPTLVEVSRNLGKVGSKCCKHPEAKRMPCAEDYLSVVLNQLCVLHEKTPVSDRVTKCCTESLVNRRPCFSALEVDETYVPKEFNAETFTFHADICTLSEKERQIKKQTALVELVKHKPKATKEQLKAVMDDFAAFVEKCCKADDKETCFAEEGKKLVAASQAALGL

intravascular half-life [1]: 18.5 ± 3 h | Kd [2]: 164 µM | albumin binding site [3]: binds primarily to site II
SMILES: O=C([O-])CN(CCN(CC(=O)[O-])CC(COP(=O)([O-])OC1CCC(c2ccccc2)(c2ccccc2)CC1)N(CC(=O)[O-])CC(=O)[O-])CC(=O)[O-].[Gd+3].[Na+].[Na+].[Na+] (stereo not drawn) [MS-325, gadofosveset trisodium]
